Laboratory results published in the NIST ThermoML archive (doi:10.1021/je0302001).

Assay: mn = molality of the nth substance listed, in mol/kg
Conditions: for surface tension liquid-gas: Ring tensiometer; for viscosity / speed of sound / mass density: 101.3 kPa, Liquid; for viscosity: Capillary tube (Ostwald / Ubbelohde) method

O=[N+]([O-])[O-].O=[N+]([O-])[O-].[Zn+2] [nitric acid, zinc salt] + O
Conditions	mass density [kg/m3]	speed of sound [m/s]	surface tension liquid-gas [mN/m]	viscosity [mPa·s]
293.15 K, m1 = 0.0875	–	1489.1	–	–
293.15 K, m1 = 0.1329	–	1488.6	–	1.053
293.15 K, m1 = 0.2466	–	1494.3	–	1.086
293.15 K, m1 = 0.3388	–	1499	–	1.118
293.15 K, m1 = 0.6111	–	1514.8	–	1.21
293.15 K, m1 = 0.6405	–	1517	–	1.223
293.15 K, m1 = 1.113	–	1546	–	1.428
293.15 K, m1 = 1.258	–	1558.9	–	1.514
293.15 K, m1 = 1.551	–	1578.3	–	1.664
293.15 K, m1 = 1.906	–	1603.4	–	1.931
293.15 K, m1 = 2.145	–	1618.3	–	2.133
293.15 K, m1 = 2.29	–	1627.9	–	2.258
293.15 K, m1 = 2.292	–	1626.3	–	–
293.15 K, m1 = 2.344	–	1631.6	–	2.273
293.15 K, m1 = 2.91	–	1666.2	–	2.846
293.15 K, m1 = 3.472	–	1697.2	–	3.61
293.15 K, m1 = 4.075	–	1724.9	–	4.615
293.15 K, m1 = 4.817	–	1752.8	–	6.303
293.15 K, m1 = 5.133	–	–	85.7	–
293.15 K, m1 = 5.224	–	1762.1	–	7.371
293.15 K, m1 = 5.797	–	1777.6	–	9.658
293.15 K, m1 = 6.245	–	–	86.95	–
293.15 K, m1 = 6.34	–	1787.7	–	11.98
293.15 K, m1 = 6.89	–	1796.2	–	–
294.3 K, m1 = 0.0875	1010.8	–	–	–
295.95 K, m1 = 4.075	1492.7	–	–	–
296.1 K, m1 = 6.89	1712.4	–	–	–
296.15 K, m1 = 0.2466	1034.3	–	–	–
296.25 K, m1 = 4.817	1558.4	–	–	–
296.5 K, m1 = 1.258	1177	–	–	–
297.05 K, m1 = 0.3388	1047.7	–	–	–
297.05 K, m1 = 1.906	1259.3	–	–	–
297.5 K, m1 = 2.29	1304.8	–	–	–
297.8 K, m1 = 0.6111	1087.1	–	–	–
297.85 K, m1 = 0.1329	1016.6	–	–	–
297.9 K, m1 = 2.292	1304.8	–	–	–
297.95 K, m1 = 4.075	1491.1	–	–	–
298 K, m1 = 2.344	1310.8	–	–	–
298.05 K, m1 = 3.472	1432.6	–	–	–
298.15 K, m1 = 0.0875	–	1502.8	–	–
298.15 K, m1 = 0.1329	–	1501.5	–	0.937
298.15 K, m1 = 0.2466	–	1506.6	–	0.968
298.15 K, m1 = 0.3388	–	1512.2	–	0.997
298.15 K, m1 = 0.6111	–	1526.1	–	1.081
298.15 K, m1 = 0.6405	–	1527.3	–	1.093
298.15 K, m1 = 1.113	–	1554.3	–	1.278
298.15 K, m1 = 1.258	–	1570.5	–	1.355
298.15 K, m1 = 1.551	–	1584.3	–	1.489
298.15 K, m1 = 1.906	–	1606.9	–	1.725
298.15 K, m1 = 2.145	–	1620.9	–	1.903
298.15 K, m1 = 2.29	–	1633	–	2.009
298.15 K, m1 = 2.292	–	1628.3	–	–
298.15 K, m1 = 2.344	–	1633.6	–	2.026
298.15 K, m1 = 2.91	–	1665.2	–	2.527
298.15 K, m1 = 3.472	–	1694.4	–	3.188
298.15 K, m1 = 4.075	–	1719.1	–	4.048
298.15 K, m1 = 4.817	1556.8	1748.7	–	5.473
298.15 K, m1 = 5.224	–	1755.5	–	6.362
298.15 K, m1 = 5.797	–	1769.4	–	8.228
298.15 K, m1 = 6.34	–	1777.8	–	10.12
298.15 K, m1 = 6.89	–	1783	–	–
298.45 K, m1 = 0.0875	1009.7	–	–	–
298.45 K, m1 = 5.224	1589.9	–	–	–
298.65 K, m1 = 0.6405	1090.9	–	–	–
298.75 K, m1 = 1.113	1156.5	–	–	–
298.75 K, m1 = 2.91	1373.5	–	–	–
298.85 K, m1 = 2.145	1286.9	–	–	–
298.95 K, m1 = 1.258	1175.8	–	–	–
299.05 K, m1 = 7.349	1738.2	–	–	–
299.2 K, m1 = 1.906	1258	–	–	–
299.6 K, m1 = 5.8	1633.1	–	–	–
299.7 K, m1 = 0.2466	1033.3	–	–	–
299.7 K, m1 = 1.551	1213.3	–	–	–
299.7 K, m1 = 6.89	1708.8	–	–	–
299.75 K, m1 = 2.29	1303.4	–	–	–
300.05 K, m1 = 2.292	1303.4	–	–	–
300.05 K, m1 = 3.472	1431.1	–	–	–
300.05 K, m1 = 6.34	1671.6	–	–	–
300.2 K, m1 = 2.344	1309.4	–	–	–
300.35 K, m1 = 5.224	1588.3	–	–	–
300.55 K, m1 = 0.3388	1046.5	–	–	–
300.8 K, m1 = 0.6111	1085.9	–	–	–
300.8 K, m1 = 2.91	1372.1	–	–	–
301 K, m1 = 2.145	1285.5	–	–	–
301.25 K, m1 = 1.113	1155.2	–	–	–
301.35 K, m1 = 5.8	1631.5	–	–	–
301.35 K, m1 = 6.89	1707.1	–	–	–
301.4 K, m1 = 0.1329	1015.6	–	–	–
301.4 K, m1 = 1.906	1256.6	–	–	–
301.5 K, m1 = 1.258	1174.5	–	–	–
301.55 K, m1 = 0.6405	1089.7	–	–	–
301.85 K, m1 = 2.29	1302	–	–	–
301.85 K, m1 = 4.075	1488	–	–	–
301.85 K, m1 = 6.34	1669.9	–	–	–
302 K, m1 = 1.551	1212	–	–	–
302.1 K, m1 = 3.472	1429.5	–	–	–
302.1 K, m1 = 4.817	1553.4	–	–	–
302.2 K, m1 = 2.292	1302	–	–	–
302.25 K, m1 = 2.344	1308.1	–	–	–
302.25 K, m1 = 5.224	1586.5	–	–	–
302.35 K, m1 = 0.0875	1008.6	–	–	–
302.5 K, m1 = 7.349	1734.5	–	–	–
302.9 K, m1 = 2.91	1370.6	–	–	–
303.15 K, m1 = 0.0875	–	1514.4	–	–
303.15 K, m1 = 0.1329	–	1513	–	0.841
303.15 K, m1 = 0.2263	–	–	71.91	–
303.15 K, m1 = 0.2466	1032.1	1518.2	–	0.87
303.15 K, m1 = 0.334	–	–	71.94	–
303.15 K, m1 = 0.3388	–	1520.9	–	0.896
303.15 K, m1 = 0.6111	–	1535.9	–	0.976
303.15 K, m1 = 0.6198	–	–	72.68	–
303.15 K, m1 = 0.6405	–	1536.9	–	0.984
303.15 K, m1 = 0.8228	–	–	73.52	–
303.15 K, m1 = 1.113	–	1561.1	–	1.15
303.15 K, m1 = 1.258	–	1571.6	–	1.221
303.15 K, m1 = 1.259	–	–	74.63	–
303.15 K, m1 = 1.549	–	–	75.19	–
303.15 K, m1 = 1.551	–	1589.3	–	1.34
303.15 K, m1 = 1.818	–	–	75.65	–
303.15 K, m1 = 1.906	–	1610.2	–	1.549
303.15 K, m1 = 2.145	1284.1	–	–	1.711
303.15 K, m1 = 2.222	–	–	76.95	–
303.15 K, m1 = 2.29	–	–	–	1.797
303.15 K, m1 = 2.344	–	–	–	1.819
303.15 K, m1 = 2.526	–	–	77.93	–
303.15 K, m1 = 2.721	–	–	78.39	–
303.15 K, m1 = 2.91	–	–	–	2.259
303.15 K, m1 = 3.426	–	–	80.38	–
303.15 K, m1 = 3.472	–	–	–	2.839
303.15 K, m1 = 4.011	–	–	81.68	–
303.15 K, m1 = 4.075	–	–	–	3.581
303.15 K, m1 = 4.231	–	–	82.16	–
303.15 K, m1 = 4.817	–	–	–	4.795
303.15 K, m1 = 5.133	–	–	84.17	–
303.15 K, m1 = 5.224	–	–	–	5.544
303.15 K, m1 = 5.797	–	–	–	7.1
303.15 K, m1 = 6.245	–	–	85.54	–
303.15 K, m1 = 6.34	–	–	–	8.647
303.15 K, m1 = 6.89	–	–	–	10.85
303.15 K, m1 = 7.349	–	–	–	12.93
